Laboratory results taken from patent US5306721A (priority 1990, dated 1994).
Counter-ions that a name gives are not always drawn. Like-named read-outs stand apart in the source and are kept apart here.

What was measured:
Herpes simplex type 1 = assay: Grading replication test on RH cell line, herpes simplex type 1; type: cell-based, herpes simplex virus; conditions: Human alphaherpesvirus 1, RH cells
Vaccinia Lister [1] = assay: microbe, parasite or virus in culture; type: cell-based; conditions: Orthopoxvirus vaccinia
Influenza A/WSN [2] = assay: Grading replication test on chicken embryo fibroblasts, influenza; type: cell-based; conditions: Influenza A virus, Fibroblast
[3] = test system: SE-specific rosette-forming cells (RFC); assay: Rosette test (SE-specific rosettes); type: in vivo, mouse (inbred CBA strain); conditions: oral administration
Experimental: The testing of immunostimulatory effects was also conducted on the mouse (inbred CBA strain) by detection through the plaque test for detecting SE (sheep erythrocyte) -specific immunoglobulin M (IgM) and immunoglobulin G (IgG) PFC (plaque forming cells), and by the rosette test.
2.2 Rosette Test (SE-specific rosettes)
According to Burnet's Theory, lymphocytes carry immunoglobulin receptors on their surface. These receptors are directed against a particular antigen and are detectable by a reaction with the specific antigen. The determination of the number of rosette-forming cells (RFC) can serve as a measure of the strength of an incipient immune reaction and consequently also reproduce the effects of a suppression or stimulation of cell-proliferative processes.
Three days after the intravenous immunization with 2×10^5 SE in 0.2 ml physiological salt solution, the experimental animals were killed by hyperdistention, the spleen was removed and, after addition of Parker medium at pH 7.4, rubbed through Muller gauze. The work to recover the cell suspension was carried out in an ice-cooled water bath from about 0° C. to about 4° C. The determination of the cell density was carried out in a Neubauer counting chamber. Next, the cell count was adjusted to 1×10^7 nuclei-containing cell (NCC) per ml of medium, a count that was kept constant for all experimental formulations. Of this spleen cell suspension (1×10^7 NCC/ml), 0.9 ml were then mixed with 0.1 ml of a 5% washed SE suspension and incubated for 24 hours at 4° C. An NCC, which was surrounded by at least 4 erythrocytes and was identifiable, was rated as a rosette.

Influenza A/WSN [4] = assay: Grading replication test on RH cell line, influenza; type: cell-based, influenza virus; conditions: RH cells
[5] = test system: effector T lymphocyte activity (contact hypersensitivity); assay: Percutaneous test for detecting delayed contact hypersensitivity (contact dermatitis) after DNFB immunization; type: in vivo, guinea pig; conditions: Cavia porcellus, Control: 100, oral 2 mg/kg daily
From the text: 1.1 Percutaneous test for detecting contact hypersensitivity
The epicutaneous application of dinitrofluorobenzene (DNFB) led to the development of a delayed hypersensitivity in guinea pigs and mice, an immune status, which is linked to the clonal reproduction of antitrinitrophenyl (TNP)-specific T lymphocytes (TDTH -ly). If, after a latency period of at least 5 days, there is a renewed application of DNFB, lymphokines are released through the reaction with the TDTH -ly of this region of the skin and thus lead to a locally limited inflammatory reaction.
Seven days after the immunization with 1% DNFB, the sides of the experimental animals were depilated and tested by the application of one drop each of the 0.5%, 0.1%, 0.05, 0.025% and 0.01% DNFB solution. […] The test results are obtained from the severity and number of the positive skin reactions, and the stimulation index (SI) is obtained from the comparison of test animals and control animals.
The test substance is orally administered. A daily dose of 2 mg/kg of body weight, as an aqueous suspension, was administered daily by a stomach tube. Duration of treatment: 1 day+1 (one day after the immunization), up to +6. The control animals received only the lactose content of the composition.
(§1) The degree of sensitization in percent and the concentration of serum antibodies expressed as antibody titer difference is compared below to the respective control group (screening values).
(§2) A contact dermatitis value of 120 or more, i.e. corresponding to an at least 20% increase compared to the control, or of less than 80 are taken as proof of a stimulatory or suppressor effect, respectively. Antibody values of >+1 or <-1 illustrate the stimulatory or suppressor effect, respectively, of the substances on the humoral response.

Vaccinia Lister [6] = assay: microbe, parasite or virus in culture; type: cell-based; conditions: Orthopoxvirus vaccinia, Fibroblast, in Gallus gallus
[7] = test system: DNP-specific serum antibodies; assay: Takatsy test for DNP-specific serum antibodies (humoral immune response); type: in vivo, guinea pig; conditions: difference to control group; blood taken 14 days after DNFB
Experimental: After immunization with DNFB, dinitrophenyl (DNP)-specific humoral antibodies, which preferentially belong to the IgG1 substance class, are developed in guinea pigs. Blood was taken from the experimental animals by puncture of the heart fourteen days after the primary epicutaneous application of DNFB. The antibody (AB) concentration was determined according to the method described by G. Takatsy: A New Method for the Preparation of Serial Dilutions in a Quick and Accurate Way, (Kiserletes Orvostudomany, Hungary, Vol. 2, 1950, pp. 263-396). TNP-laden sheep erythrocytes were used as indicator cells coupled according to Rittenberg and Pratt (M. B. Rittenberg, and K. L. Pratt, Antitrinitrophenyl Plaque Assay. Primary Response of BALB/c Mice to Soluble and Particulate Immunogen, Proc. Soc. Exp. Biol. Med., Vol. 132, 1969, pp. 575-579).
as §1, §2

[8] = levamisole after oral administration to man; inosine benzoate about 50 mg/kg/day; cited from earlier work
immune system = conditions: cited from earlier work
[9] = 62.5 μmoles/l, read-out: Inhibition of virus yield
[10] = 62.5 μmoles/l, read-out: Lowering the virus yield
[11] = 125 μmoles/l, read-out: Inhibition of virus yield
[12] = 125 μmoles/l, read-out: Lowering the virus yield
[13] = 250 μmoles/l, read-out: Inhibition of virus yield
[14] = 250 μmoles/l, read-out: Lowering the virus yield
[15] = read-out: Inhibition of virus yield
[16] = read-out: Lowering the virus yield
[17] = 24 h, day +1 to +6, read-out: Contact dermatitis, 24-hour reaction
[18] = 48 h, day +1 to +6, read-out: Contact dermatitis, 48-hour reaction

`COc1cc2[nH]c(=O)n(CCCS)c(=O)c2cc1OC` [Example 2, 3-(3-mercapto-prop-1-yl)-6,7-dimethoxy-quinazoline-2,4(1H,3H)-dione] gave an inhibition at 31.25 µM (Herpes simplex type 1; 31.25 μmoles/l, read-out: Inhibition of virus yield) of 100%, a log reduction at 31.25 µM (Herpes simplex type 1; 31.25 μmoles/l, read-out: Lowering the virus yield) of 3.67 and an inhibition at 62.5 µM (Herpes simplex type 1; [9]) of over 100%. The log reduction at 62.5 µM (Herpes simplex type 1; [10]) was 5, the inhibition at 125 µM (Herpes simplex type 1; [11]) was over 100% and the log reduction at 125 µM (Herpes simplex type 1; [12]) was 6.5. The inhibition at 250 µM (Herpes simplex type 1; [13]) was over 100%, the log reduction at 250 µM (Herpes simplex type 1; [14]) was 6.5 and the inhibition at 31.25 µM (Vaccinia Lister [1]; [15]) was 99.8%. The inhibition at 62.5 µM (Vaccinia Lister [1]; [15]) was over 100%, the inhibition at 125 µM (Vaccinia Lister [1]; [15]) was over 100% and the inhibition at 250 µM (Vaccinia Lister [1]; [15]) was over 100%. For the same molecule, the log reduction at 31.25 µM (Vaccinia Lister [1]; [16]) was 2.84, the log reduction at 62.5 µM (Vaccinia Lister [1]; [16]) was 5 and the log reduction at 125 µM (Vaccinia Lister [1]; [16]) was 5. The log reduction at 250 µM (Vaccinia Lister [1]; [16]) was 5, the inhibition at 62.5 µM (Influenza A/WSN [2]; [9]) was 99% and the log reduction at 62.5 µM (Influenza A/WSN [2]; [10]) was 2. It also gave an inhibition at 125 µM (Influenza A/WSN [2]; [11]) of over 100%, a log reduction at 125 µM (Influenza A/WSN [2]; [12]) of 5 and an inhibition at 250 µM (Influenza A/WSN [2]; [13]) of over 100%. For the same molecule, the log reduction at 250 µM (Influenza A/WSN [2]; [14]) was 5, the “production of SE-specific rosette-forming cells” value [3] was “significant production of SE-specific rosette-forming cells” and the “Inhibition of virus yield” value (Influenza A/WSN [4]; 62.5 μmoles/l, n.s. = not significant) was “n.s”. It also gave a log reduction at 31.25 µM (Influenza A/WSN [4]; Influenza A virus, WSN, 31.25 μmoles/l, read-out: Lowering the virus yield) of 0, a log reduction at 62.5 µM (Influenza A/WSN [4]; Influenza A virus, WSN, 62.5 μmoles/l, read-out: Lowering the virus yield) of 0.5 and an inhibition at 125 µM (Influenza A/WSN [4]; Influenza A virus, WSN, 125 μmoles/l, read-out: Inhibition of virus yield) of 99%. It also gave a log reduction at 125 µM (Influenza A/WSN [4]; Influenza A virus, WSN, 125 μmoles/l, read-out: Lowering the virus yield) of 2, an inhibition at 250 µM (Influenza A/WSN [4]; Influenza A virus, WSN, 250 μmoles/l, read-out: Inhibition of virus yield) of 100% and a log reduction at 250 µM (Influenza A/WSN [4]; Influenza A virus, WSN, 250 μmoles/l, read-out: Lowering the virus yield) of 6.17. The response vs control in vivo at 2 mg/kg [5, 17] was 180%, the inhibition at 31.25 µM (Vaccinia Lister [6]; [15]) was 99.9% and the inhibition at 62.5 µM (Vaccinia Lister [6]; [15]) was 99.9%. For the same molecule, the inhibition at 125 µM (Vaccinia Lister [6]; [15]) was over 100%, the inhibition at 250 µM (Vaccinia Lister [6]; [15]) was over 100% and the log reduction at 31.25 µM (Vaccinia Lister [6]; [16]) was 3. The log reduction at 62.5 µM (Vaccinia Lister [6]; [16]) was 3.5, the log reduction at 125 µM (Vaccinia Lister [6]; [16]) was 5 and the log reduction at 250 µM (Vaccinia Lister [6]; [16]) was 5.
For `COc1cc2[nH]c(=O)n(CCS)c(=O)c2cc1OC` [Example 3, 3-(2-mercapto-ethyl)-6,7-dimethoxy-quinazoline-2,4(1H,3H)-dione], the “DNP-specific antibodies (antibody titer difference)” value [7] was “+1.0” and the response vs control in vivo at 2 mg/kg [5, 17] was 100%.
In the case of `O=c1[nH]c2ccc(Br)cc2c(=O)n1CCS` [Example 5, 6-bromo-3-(2-mercaptoethyl)-quinazoline-2,4(1H,3H)-dione], the “DNP-specific antibodies (antibody titer difference)” value [7] is reported as -0.6, the response vs control in vivo at 2 mg/kg [5, 17] is reported as 150% and the response vs control in vivo at 2 mg/kg [5, 18] is reported as 120%.
For `O=c1[nH]c2ccccc2c(=O)n1CCCS` [Example 6, 3-(3-Mercapto-propyl)-quinazoline-2,4(1H,3H)-dione], the “production of SE-specific rosette-forming cells” value [3] was “significant production of SE-specific rosette-forming cells”, the “DNP-specific antibodies (antibody titer difference)” value [7] was -1.5 and the response vs control in vivo at 2 mg/kg [5, 17] was 70%. For the same molecule, the response vs control in vivo at 2 mg/kg [5, 18] was 40%.
With `CC(S)Cn1c(=O)[nH]c2ccccc2c1=O` (centres unmarked) [Example 7, 3-(2-mercapto-propyl)-quinazoline-2,4(1H,3H)-dione] the “DNP-specific antibodies (antibody titer difference)” value [7] was “+1.8” and the response vs control in vivo at 2 mg/kg [5, 17] was 230%.
Molecule `O=c1[nH]c2ccc(Cl)cc2c(=O)n1CCCS` [Example 8, 6-chloro-3-(3-mercapto-propyl)-quinazoline-2,4(1H,3H)-dione] has a response vs control in vivo at 2 mg/kg [5, 17] of 100% and a response vs control in vivo at 2 mg/kg [5, 18] of 115%.
For `Cc1ccc2[nH]c(=O)n(CCCS)c(=O)c2c1` [Example 12, 6-methyl-3-(3-mercapto-propyl)-quinazoline-2,4(1H,3H)-dione], the “DNP-specific antibodies (antibody titer difference)” value [7] was “+0.3”, the response vs control in vivo at 2 mg/kg [5, 17] was 120% and the response vs control in vivo at 2 mg/kg [5, 18] was 130%.
With `O=c1[nH]c2ccc(Cl)cc2c(=O)n1CCS` [Example 13, 6-chloro-3-(2-mercapto-ethyl)-quinazoline-2,4(1H,3H)-dione] the response vs control in vivo at 2 mg/kg [5, 17] was 120% and the response vs control in vivo at 2 mg/kg [5, 18] was 130%.
With `Cc1ccc2[nH]c(=O)n(CCS)c(=O)c2c1` [Example 14a, 6-Methyl-3-(2-mercapto-ethyl)-quinazoline-2,4(1H,3H)-dione] the “DNP-specific antibodies (antibody titer difference)” value [7] was -1.9, the response vs control in vivo at 2 mg/kg [5, 17] was 60% and the response vs control in vivo at 2 mg/kg [5, 18] was 60%.
For `O=c1[nH]c2ccc(Br)cc2c(=O)n1CCCS` [Example 14b, 6-Bromo-3-(3-mercapto-propyl)-quinazoline-2,4(1H,3H)-dione], the “DNP-specific antibodies (antibody titer difference)” value [7] was “+2.2”, the response vs control in vivo at 2 mg/kg [5, 17] was 105% and the response vs control in vivo at 2 mg/kg [5, 18] was 100%.
Molecule `O=c1[nH]c2ccc(F)cc2c(=O)n1CCS` [Example 14c, 6-Fluoro-3-(2-mercapto-ethyl)-quinazoline-2,4(1H,3H)-dione] has a response vs control in vivo at 2 mg/kg [5, 17] of 90% and a response vs control in vivo at 2 mg/kg [5, 18] of 105%.
For `CC(S)Cn1c(=O)[nH]c2ccc(F)cc2c1=O` (centres unmarked) [Example 14d, 6-Fluoro-3-(2-mercapto-propyl)-quinazoline-2,4(1H,3H)-dione], the response vs control in vivo at 2 mg/kg [5, 17] was 100% and the response vs control in vivo at 2 mg/kg [5, 18] was 150%.
For `COc1cc2[nH]c(=O)n(CC(C)S)c(=O)c2cc1OC` (centres unmarked) [Example 14e, 6,7-Dimethoxy-3-(2-mercapto-propyl)-quinazoline-2,4(1H,3H)-dione], the “production of SE-specific rosette-forming cells” value [3] was “significant production of SE-specific rosette-forming cells” and the response vs control in vivo at 2 mg/kg [5, 17] was 100%.
For `CC(C)(N1CC1C#N)N1CC1C(N)=O` (centres unmarked) [azimexone], the side effects [8] is listed as “headaches, vomiting and a decrease in haemoglobin (Hb) and erythrocytes”.
For `O=C(OC[C@H]1O[C@@H](n2cnc3c(O)ncnc32)[C@H](O)[C@@H]1O)c1ccccc1` [inosine benzoate], the immunological effect (immune system) is given as “primarily an immunostimulating effect” and the side effects [8] is given as “vomiting, hyperuricemia and an increase in hematocrits”.
In the case of `c1ccc([C@H]2CN3CCSC3=N2)cc1` [levamisole hydrochloride], the immunological effect (immune system) is listed as “predominantly immunorestorative effect” and the side effects [8] is listed as “vomiting, nausea, leucopenia, and agranulocytosis”.
